# Reference: paper PMC11261597, “Three-Step Enzymatic Remodeling of Chitin into Bioactive Chitooligomers” (Journal of Agricultural and Food Chemistry, 2024)
# Biological target: T1, BsPdaC (Bacillus subtilis, UniProt O34798)
# T1 construct: gene pdaC
# T1 sequence (O34798 278-467 limits assumed): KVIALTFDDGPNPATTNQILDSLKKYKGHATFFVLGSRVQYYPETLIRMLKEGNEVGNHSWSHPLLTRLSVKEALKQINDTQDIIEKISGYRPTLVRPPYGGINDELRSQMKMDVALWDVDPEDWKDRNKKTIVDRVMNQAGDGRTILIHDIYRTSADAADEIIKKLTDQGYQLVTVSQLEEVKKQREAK
# Assay: deacetylation followed by HPLC-MS
# Assay type: biochemical
# Conditions: 2 mM substrate, 4 μM enzyme, PBS pH 7.5, 37 °C
smiles,measurement,value
CC(=O)N[C@H]1[C@H](O[C@H]2[C@H](O)[C@@H](NC(C)=O)[C@H](O[C@H]3[C@H](O)[C@@H](NC(C)=O)C(O)O[C@@H]3CO)O[C@@H]2CO)O[C@H](CO)[C@@H](O[C@@H]2O[C@H](CO)[C@@H](O[C@@H]3O[C@H](CO)[C@@H](O)[C@H](O)[C@H]3NC(C)=O)[C@H](O)[C@H]2NC(C)=O)[C@@H]1O (some centres unmarked) [CH5],deacetylation followed by HPLC-MS,BsPdaC exhibited an effective deacetylation of standard CH4 and CH5 substrates
"CC(=O)N[C@H]1[C@H](O[C@H]2[C@H](O)[C@@H](NC(C)=O)C(O)O[C@@H]2CO)O[C@H](CO)[C@@H](O[C@@H]2O[C@H](CO)[C@@H](O[C@@H]3O[C@H](CO)[C@@H](O)[C@H](O)[C@H]3NC(C)=O)[C@H](O)[C@H]2NC(C)=O)[C@@H]1O (some centres unmarked) [CH4, N,N′,N″,N‴-tetraacetylchitotetraose]",deacetylation followed by HPLC-MS,BsPdaC exhibited an effective deacetylation of standard CH4 and CH5 substrates
